Patent US12421277B2, “Anti-aging salmon roe tripeptide and preparation method and application thereof” (Shenzhen Porshealth Bioengineering Co., Ltd., priority 2023, dated 2025)
Where a SMILES comes first, the peptide text is derived from it.

Assay: Blood absorption of YLP in rats, UPLC-MS/MS
Conditions: rat, in vivo, po, SD rats, intragastric 100 mg/kg bw
Description: In this research, SD rats are used, and divided into three groups: a normal group and salmon YLP groups (with a daily dosage of 100 mg/kg bw). The rats are fasted but allowed to drink water 12 h before the experiment begins. At 15 min, 45 min, 90 min, 180 min and 360 min after intragastric administration, all the rats are anesthetized with the 3% pentobarbital sodium, and blood is collected from abdominal aortas, followed by euthanasia. […]
• (1) The required samples are taken out for thawing, and uniformly mixed by a vortex. • (2) 40 μL of a mixed sample is taken, and 120 μL of methanol is added for shaking treatment for 10 min, and a resultant is centrifuged at a low temperature for 10 min. • (3) 70 μL of a supernatant solution is taken from the centrifuged sample for subsequent measurement. 4.2.2.2 Preparation of Standard Solution
Chromatographic separation is performed by using a Waters ACQUITY UPLC I-CLASS ultra-high performance liquid chromatographic device. Specific conditions are as follows: chromatographic column Waters UPLC HSS T3 ([…], 2.1 mm×100 mm)—mobile phase: A phase (water, 0.1% formic acid), B phase (methanol)—flow rate: 0.3 mL/min—injection volume: 5.0 μL—column temperature: 40° C. —single sample analysis time: 8 min.
A Waters XEVO TQ-XS tandem quadrupole mass spectrometer is used for mass spectrometry detection. Specific conditions are as follows: positive ion source voltage: 3.0 kV—cone voltage: 30 V—desolvation temperature: 500° C. —desolvation gas flow rate: […]—cone gas flow rate: […].
Data is expressed in the form of Mean±SD. Graphpad is used for data processing and significance analysis. […] A target peak area in polypeptide metabolic data is calculated by using TargetLynx software, and an allowable error of a retention time is 15 s. Concentration calculation is based on a standard curve method to obtain quantitative results.

CC(C)C[C@H](NC(=O)[C@@H](N)Cc1ccc(O)cc1)C(=O)N1CCC[C@H]1C(=O)O [YLP] (H-Tyr-Leu-Pro-OH; N-terminus and C-terminus assumed)
AUC (15-360 min): 6.19 ng·h/mL | Cmax (at 90 min, read-out: maximum content of YLP in blood): 1.31 ± 0.44 ng/mL | Tmax (read-out: time of maximum content in blood (converted)): 1.5 h
